Experiment: Determination of the log P values by HPLC (formic acid method)
Assay type: physicochemical
Settings: reversed-phase column (C 18), acidic range (pH 3.4), 55° C.; for chromatographic logP: reversed-phase HPLC column (C 18)
Description: 1) Description of Method for Determination of the Log P Values (Formic Acid Method)
Eluents for determination in the acidic range (pH 3.4):
Eluent A: acetonitrile+1 ml of formic acid/liter. Eluent B: water+0.9 ml of formic acid/liter.
The lambda max values were determined in the maxima of the chromatographic signals using the UV spectra from 200 nm to 400 nm.

Structure (SMILES) | log P | chromatographic logP
O=C(Nc1ccn(-c2ncccc2F)n1)c1occc1I [Compound I-1-582] | 2.16 | 
CC(=O)Nc1cc(F)c(-n2ccc(NC(=O)c3ccccc3C(F)(F)F)n2)c(F)c1 [Compound I-1-583, N-[1-(4-Acetamido-2,6-difluorophenyl)-1H-pyrazol-3-yl]-2-(trifluoromethyl)benzamide] |  | 2.28
CC(=O)c1cc(F)c(-n2ccc(NC(=O)c3ccccc3C(F)(F)F)n2)c(F)c1 [Compound I-1-584, N-[1-(4-Acetyl-2,6-difluorophenyl)-1H-pyrazol-3-yl]-2-(trifluoromethyl)benzamide] |  | 2.7
N#Cc1c(-n2ccc(NC(=O)c3ccccc3C(F)(F)F)n2)ccnc1Cl [Compound I-1-585, N-[1-(2-Chloro-3-cyanopyridin-4-yl)-1H-pyrazol-3-yl]-2-(trifluoromethyl)benzamide] |  | 2.67
N#Cc1c(Cl)ccnc1-n1ccc(NC(=O)c2ccccc2C(F)(F)F)n1 [Compound I-1-586, N-[1-(4-Chloro-3-cyanopyridin-2-yl)-1H-pyrazol-3-yl]-2-(trifluoromethyl)benzamide] |  | 2.67
O=C(Nc1ccn(-c2ncc(Cl)cc2F)n1)c1ccccc1C(F)(F)F [Compound I-1-587] | 2.91 | 
O=C(Nc1ccn(-c2ncc(Cl)cc2F)n1)c1c(F)cccc1F [Compound I-1-588] | 2.60 | 
O=C(Nc1ccn(-c2ncc(Cl)cc2F)n1)c1ccccc1Br [Compound I-1-589] | 2.78 | 
O=C(Nc1ccn(-c2ncc(Cl)cc2F)n1)c1ccccc1Cl [Compound I-1-590] | 2.74 | 
O=C(Nc1ccn(-c2ncc(Cl)cc2F)n1)c1c(F)cccc1C(F)(F)F [Compound I-1-591] | 2.98 | 
O=C(Nc1ccn(-c2ncc(Cl)cc2F)n1)c1ccsc1I [Compound I-1-592] | 2.99 | 
O=C(Nc1ccn(-c2ncc(Cl)cc2F)n1)c1ccccc1I [Compound I-1-593] | 2.89 | 
N#Cc1cncnc1-n1ccc(NC(=O)c2ccccc2C(F)(F)F)n1 [Compound I-1-594] | 2.34 | 
N#Cc1cncnc1-n1ccc(NC(=O)c2c(F)cccc2F)n1 [Compound I-1-595] | 2.03 | 
O=C(Nc1ccn(-c2ccc(F)cn2)n1)c1cccnc1C(F)(F)F [Compound I-1-597] | 2.32 | 
O=C(Nc1ccn(-c2ccc(F)cn2)n1)c1ccccc1I [Compound I-1-599] | 2.78 | 
O=C(Nc1ccn(-c2ncc(F)cn2)n1)c1ccccc1C(F)(F)F [Compound I-1-600] | 2.13 | 
O=C(Nc1ccn(-c2ncc(F)cn2)n1)c1cccnc1C(F)(F)F [Compound I-1-601] | 1.73 | 
O=C(Nc1ccn(-c2ncc(F)cn2)n1)c1c(F)cccc1F [Compound I-1-602] | 1.83 | 
O=C(Nc1ccn(-c2ncc(F)cn2)n1)c1ccccc1Br [Compound I-1-603] | 1.94 | 
O=C(Nc1ccn(-c2ncc(F)cn2)n1)c1ccccc1Cl [Compound I-1-604] | 1.91 | 
O=C(Nc1ccn(-c2ncc(F)cn2)n1)c1ccccc1I [Compound I-1-605] | 2.05 | 

Structure (SMILES) | log P | chromatographic logP
N#Cc1cc(F)c(-n2ccc(NC(=O)c3ccccc3C(F)(F)F)n2)nc1Cl [Compound I-1-606, N-[1-(6-Chloro-5-cyano-3-fluoropyridin-2-yl)-1H-pyrazol-3-yl]-2-(trifluoromethyl)benzamide] |  | 2.94
N#Cc1ccc(Cl)nc1-n1ccc(NC(=O)c2ccccc2C(F)(F)F)n1 [Compound I-1-607, N-[1-(6-Chloro-3-cyanopyridin-2-yl)-1H-pyrazol-3-yl]-2-(trifluoromethyl)benzamide] |  | 3.14
N#Cc1ccc(-n2ccc(NC(=O)c3ccccc3C(F)(F)F)n2)nc1Cl [Compound I-1-608, N-[1-(6-Chloro-5-cyanopyridin-2-yl)-1H-pyrazol-3-yl]-2-(trifluoromethyl)benzamide] |  | 3.17
O=C(Nc1ccn(-c2c(F)cccc2F)n1)c1ccccc1CC(F)(F)F [Compound I-1-610] | 3.00 | 
O=C(Nc1ccn(-c2c(F)cccc2F)n1)C1=C(C(F)F)OCCS1 [Compound I-1-611] | 2.53 | 
O=C(Nc1ccn(-c2c(F)cccc2F)n1)c1ccccc1NC(=O)C(F)(F)F [Compound I-1-612] | 3.53 | 
O=C(Nc1ccn(-c2c(F)cccc2F)n1)c1c(F)cccc1Br [Compound I-1-613] | 2.72 | 
O=C(Nc1ccn(-c2c(F)cccc2F)n1)c1c(Cl)cccc1C(F)(F)F [Compound I-1-614] | 2.86 | 
CC1=C(C(=O)Nc2ccn(-c3c(F)cccc3F)n2)OCCO1 [Compound I-1-615] | 2.42 | 
CC1=C(C(=O)Nc2ccn(-c3c(F)cccc3F)n2)S(=O)(=O)CCO1 [Compound I-1-616] | 1.80 | 
N#Cc1c(F)cccc1-n1ccc(NC(=O)c2ccccc2C(F)(F)F)n1 [Compound I-1-617] | 2.72 | 
N#Cc1c(F)cccc1-n1ccc(NC(=O)c2cccnc2C(F)(F)F)n1 [Compound I-1-618] | 2.26 | 
N#Cc1c(F)cccc1-n1ccc(NC(=O)c2c(F)cccc2F)n1 [Compound I-1-619] | 2.45 | 
N#Cc1c(F)cccc1-n1ccc(NC(=O)c2ccccc2Br)n1 [Compound I-1-620] | 2.61 | 
N#Cc1c(F)cccc1-n1ccc(NC(=O)c2ccccc2Cl)n1 [Compound I-1-621] | 2.57 | 
N#Cc1c(F)cccc1-n1ccc(NC(=O)c2cccnc2Cl)n1 [Compound I-1-622] | 1.95 | 
N#Cc1c(F)cccc1-n1ccc(NC(=O)c2c(F)cccc2C(F)(F)F)n1 [Compound I-1-623] | 2.68 | 
N#Cc1c(F)cccc1-n1ccc(NC(=O)c2ccsc2I)n1 [Compound I-1-624] | 2.79 | 
N#Cc1c(F)cccc1-n1ccc(NC(=O)c2ccccc2I)n1 [Compound I-1-625] | 2.63 | 
N#Cc1cc(F)ccc1-n1ccc(NC(=O)c2ccccc2C(F)(F)F)n1 [Compound I-1-626] | 2.67 | 
N#Cc1cc(F)ccc1-n1ccc(NC(=O)c2cccnc2C(F)(F)F)n1 [Compound I-1-627] | 2.21 | 
N#Cc1cc(F)ccc1-n1ccc(NC(=O)c2c(F)cccc2F)n1 [Compound I-1-628] | 2.39 | 

Structure (SMILES) | log P | chromatographic logP
N#Cc1cc(F)ccc1-n1ccc(NC(=O)c2ccccc2Br)n1 [Compound I-1-629] | 2.55 | 
N#Cc1cc(F)ccc1-n1ccc(NC(=O)c2ccccc2Cl)n1 [Compound I-1-630] | 2.52 | 
N#Cc1cc(F)ccc1-n1ccc(NC(=O)c2cccnc2Cl)n1 [Compound I-1-631] | 1.91 | 
N#Cc1cc(F)ccc1-n1ccc(NC(=O)c2c(F)cccc2C(F)(F)F)n1 [Compound I-1-632] | 2.64 | 
N#Cc1cc(F)ccc1-n1ccc(NC(=O)c2ccsc2I)n1 [Compound I-1-633] | 2.73 | 
N#Cc1cc(F)ccc1-n1ccc(NC(=O)c2ccccc2I)n1 [Compound I-1-634] | 2.57 | 
O=C(Nc1ccn(-c2ncc(F)cc2F)n1)c1ccccc1CC(F)(F)F [Compound I-1-635] | 2.80 | 
O=C(Nc1ccn(-c2ncc(F)cc2F)n1)C1=C(C(F)F)OCCS1 [Compound I-1-636] | 2.31 | 
O=C(Nc1ccn(-c2ncc(F)cc2F)n1)c1c(F)cccc1Br [Compound I-1-637] | 2.50 | 
O=C(Nc1ccn(-c2ncc(F)cc2F)n1)c1c(Cl)cccc1C(F)(F)F [Compound I-1-638] | 2.70 | 
CC1=C(C(=O)Nc2ccn(-c3ncc(F)cc3F)n2)OCCO1 [Compound I-1-639] | 2.16 | 
O=C(Nc1ccn(-c2nccc(-c3ccc(F)cc3)c2F)n1)c1ccccc1C(F)(F)F [Compound I-1-640, N-{1-[3-Fluoro-4-(4-fluorophenyl)pyridin-2-yl]-1H-pyrazol-3-yl}-2-(trifluoromethyl)benzamide] |  | 3.4
O=C(Nc1ccn(-c2nccc(-c3ccc(F)cc3)c2F)n1)c1ccccc1C(F)(F)F [Compound I-1-642] | 3.40 | 
Nc1cc(F)c(-n2ccc(NC(=O)c3ccccc3C(=O)O)n2)c(F)c1 [Compound I-1-643, 2-{[1-(4-Amino-2,6-difluorophenyl)-1H-pyrazol-3-yl]carbamoyl}benzoic acid] |  | 1.38
Cn1cncc1C(=O)Nc1ccn(-c2c(F)cccc2F)n1 [Compound I-1-644] | 0.99 | 
Cn1cccc1C(=O)Nc1ccn(-c2c(F)cccc2F)n1 [Compound I-1-645] | 2.41 | 
Cn1cncc1C(=O)Nc1ccn(-c2ncc(F)cc2F)n1 [Compound I-1-646] | 0.70 | 
Cn1cccc1C(=O)Nc1ccn(-c2ncc(F)cc2F)n1 [Compound I-1-647] | 2.16 | 
O=C(Nc1cnn(-c2ccccc2Cl)n1)c1ccccc1I [Compound I-2-3] | 3.03 | 
O=C(Nc1cnn(-c2ccccc2Cl)n1)c1cccnc1C(F)(F)F [Compound I-2-4] | 2.54 | 
O=C(Nc1cnn(-c2ccccc2Cl)n1)c1cccnc1Cl [Compound I-2-5] | 2.20 | 

Reference: patent US9802899B2, “Heterocyclic compounds as pesticides” (BAYER CROPSCIENCE AG, priority 2012, dated 2017)
